Laboratory results reported in patent US20110313156A1 (BOEHRINGER INGELHEIM INTERNATIONAL GMBH, priority 2008, published 2011).

biological target: T1, ΔPH-PDK1 (aa 51-359; Q66A mutation) (Homo sapiens, UniProt O15530, Q66A); test: PDK1 kinase assay II (shortened enzyme); format: biochemical; conditions: compound at 10 μM, one asterisk: incubation for 24 h, read-out: % CTL (residual activity of the enzyme relative to DMSO control)
T1 construct: a shortened PDK1 enzyme (aa 51-359; Q66A mutation) is used; His6 (N, cleaved yes)
T1 sequence (O15530 51-359 Q66A): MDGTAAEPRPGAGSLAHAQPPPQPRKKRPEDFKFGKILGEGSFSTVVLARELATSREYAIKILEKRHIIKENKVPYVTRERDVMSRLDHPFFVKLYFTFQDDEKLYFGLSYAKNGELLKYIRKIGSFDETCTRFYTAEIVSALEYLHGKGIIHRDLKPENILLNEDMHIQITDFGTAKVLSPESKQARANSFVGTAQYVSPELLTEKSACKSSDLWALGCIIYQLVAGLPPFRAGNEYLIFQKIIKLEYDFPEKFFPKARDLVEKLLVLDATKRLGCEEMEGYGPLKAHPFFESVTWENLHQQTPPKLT
Procedure: Another assay was developed in which a shortened PDK1 enzyme (aa 51-359; Q66A mutation) is used that carries in the N-terminal position a His6 tag that is cleaved during purification. (ΔPH-PDK1).
The following components are combined in a well of a 96-well round-based dish (Messrs. Greiner bio-one, No. 650101): • 15 μL of compound to be tested in varying concentrations (e.g. Starting at 10 μM, and diluted in steps of 1:5) in 3.33% DMSO (final concentration 1% DMSO)/assay buffer (50 mM Tris pH 7.5, 0.05% β-mercaptoethanol, 10 mM Mg-acetate) • 15 μL (ΔPH-PDK1; 12 ng/well) and PDKtide ([…]-QEMFRDFDYIADWC) synthesised by Pepceuticals Limited, Nottingham, United Kingdom; 25 μM final concentration); (ΔPH-PDK1 and PDKtide are together diluted accordingly in assay buffer; PDKtide is present in this mixture as an 83.3 μM solution. These 30 […] are incubated for 24 h at RT before ATP solution is added. • 20 μL ATP solution (25 μM ATP with 1.0 μCi/well gamma-P33-ATP)
The reaction is started by adding the ATP solution and the mixture is incubated for 120 min at ambient temperature; at the start of the reaction the dishes are shaken gently. The reaction is stopped by the addition of 50 μL/well of 500 mM phosphoric acid (H3PO4) and incubated for about 20 min at ambient temperature. The precipitate is transferred by harvesting onto filter plates (96-well microtitre filter plate: UniFilter GF/C; Messrs Perkin Elmer; No. 6005174), then washed 6 times with 50 mM H3PO4 and dried at 60° C. Then the plate is stuck down with sealing tape, 25 μL/well of scintillation solution (Microscint 0; Messrs. Perkin Elmer; No. 6013611) are added and the amount of P33 precipitated is measured using the Wallac Betacounter. The measured data are evaluated using Graphpad Prism software.
The % CTL values indicate the residual activity of the enzyme after the addition of the inhibitory compound in the solvent DMSO in relation to the enzyme activity in the solvent DMSO without the addition of a compound (control). The majority of the values were determined using the PDK1 kinase assay III described hereinbefore. The values marked with an asterisk (* or**) were determined using the PDK1 kinase assay II described hereinbefore (one asterisk→incubation for 24 h; two asterisks→incubation for 5 min)

SMILES	remaining activity at 10 µM [%]
Cc1c(C(=O)NCC#Cc2cc3cnc(Nc4ccccc4)nc3n(C)c2=O)c(=O)n(Cc2ccc(F)c(F)c2)n1C [III-23, 2-(3,4-difluorobenzyl)-1,5-dimethyl-N-{3-[8-methyl-7-oxo-2-(phenylamino)-7,8-dihydropyrido[2,3-d]pyrimidin-6-yl]prop-2-yn-1-yl}-3-oxo-2,3-dihydro-1H-pyrazole-4-carboxamide]	9.1
C/C(=C\c1ccc2nc(Nc3ccc(CN(C)C)cc3)ncc2c1)CNC(=O)c1cncn(Cc2ccc(F)c(F)c2)c1=O [IV-28, 1-(3,4-difluorobenzyl)-N-{(2E)-3-[2-({4-[(dimethylamino)methyl]phenyl}amino)-quinazolin-6-yl]-2-methylprop-2-en-1-yl}-6-oxo-1,6-dihydropyrimidine-5-carboxamide]	27.9
C/C(=C\c1ccc2c(c1)NC(=O)/C2=C\c1cnc[nH]1)CNC(=O)c1cncn(Cc2ccc(F)c(F)c2)c1=O [I-45, 1-(3,4-difluorobenzyl)-N-{(2E)-3-[(3Z)-3-(1H-imidazol-5-ylmethylidene)-2-oxo-2,3-dihydro-1H-indol-6-yl]-2-methylprop-2-en-1-yl}-6-oxo-1,6-dihydropyrimidine-5-carboxamide]	7.9
